The values that follow come from US7109193B2, “Tricyclic diazepines tocolytic oxytocin receptor antagonists” (Wyeth, priority 2001, dated 2006).

In series [1] the target is T1, human vasopressin V1a receptor subtype (Homo sapiens, UniProt P37288).
T1 construct: host or cells: CHO cells (pZeoSV vector for the Thibonnier line)
Put plainly: Vasopressin binding in Chinese Hamster Ovary cell membranes expressing human vasopressin V1a subtype receptors. Conditions: 100 nM, CHO cell membranes, [3H]Manning ligand, values without parentheses. The method in brief: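 Displacement of [3H]Manning ligand (8 nM working solution) from human V1a receptors in CHO cell membranes, 25–50 μg protein per well. Incubation ran 60 min at room temperature in 50 mM Tris-HCl pH 7.4 with protease inhibitors, followed by filtration and scintillation counting. Results are given as IC50 or percent inhibition.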

T1 sequence (P37288 whole entry): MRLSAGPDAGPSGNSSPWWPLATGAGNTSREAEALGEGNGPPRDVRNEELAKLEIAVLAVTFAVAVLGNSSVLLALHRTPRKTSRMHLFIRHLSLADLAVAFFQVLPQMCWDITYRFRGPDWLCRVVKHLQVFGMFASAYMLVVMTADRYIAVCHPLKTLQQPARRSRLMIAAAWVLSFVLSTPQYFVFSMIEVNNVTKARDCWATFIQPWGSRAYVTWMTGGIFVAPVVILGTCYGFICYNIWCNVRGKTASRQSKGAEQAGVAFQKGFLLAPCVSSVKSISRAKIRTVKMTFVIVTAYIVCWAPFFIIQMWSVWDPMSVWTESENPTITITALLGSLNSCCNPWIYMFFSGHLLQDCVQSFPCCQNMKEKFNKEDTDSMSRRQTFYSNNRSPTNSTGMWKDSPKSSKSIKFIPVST

The inhibition is the drop in the measured response relative to a control, in per cent. As a reminder, the melting point is the temperature of the solid-liquid transition. For the compound `CCOc1ccccc1-c1cc(OC)c(C(=O)N2Cc3cccn3Cc3ccccc32)cc1Cl` [Example 17, 10-{[6-Chloro-3-methoxy-2′-ethoxy[1,1′-biphenyl]-4-yl]carbonyl}-10,11-dihydro-5H-pyrrolo[2,1-c][1,4]benzodiazepine], the melting point is 213 to 215 °C. In series [1], the inhibition at 0.1 µM is -11%.

Turning to `Cc1cc(C(=O)N2Cc3cccn3Cc3ccccc32)ccc1-c1ccncc1` [Example 31, [3-Methyl-4-(4-pyridinyl)phenyl]-[10,11-dihydro-5H-pyrrolo[2,1-c][1,4]benzodiazepin-10-yl]methanone], the melting point lay within 208 to 210 °C. Besides, the inhibition at 0.1 µM in series [1] came to 30%.

`O=C(c1ccc(-c2ccccc2)nc1)N1Cc2cccn2Cc2ccccc21` [Example 29, (6-Phenyl-pyridin-3-yl)-[10,11-dihydro-5H-pyrrolo[2,1-c][1,4]benzodiazepin-10-yl]methanone] showed a melting point of 171 to 174 °C. The inhibition at 0.1 µM in series [1] is 74%.

For `Cc1cc(C(=O)N2Cc3cccn3Cc3ccccc32)cc(C)c1-n1c(C)ccc1C` [Example 30, [4-(2,5-Dimethyl-1H-pyrrol-1-yl)-3,5-dimethyl-phenyl][10,11-dihydro-5H-pyrrolo[2,1-c][1,4]benzodiazepin-10-yl]methanone], the melting point lay within 197 to 199 °C. The inhibition at 0.1 µM in series [1] turned out to be 8%.

On to `COc1cccc(-c2ccc(C(=O)N3Cc4ccc(C(=O)N5CCN(C)CC5)n4Cc4ccccc43)cc2OC)c1` [Example 57, {10-[(2,3′-Dimethoxy[1,1′-biphenyl]-4-yl)carbonyl]-10,11-dihydro-5H-pyrrolo[2,1-c][1,4]benzodiazepin-3-yl}(4-methyl-1-piperazinyl)methanone], for which, in series [1], the inhibition at 0.1 µM was determined as 15%.

In the case of `COc1cc(-c2ccccc2C)c(Cl)cc1C(=O)N1Cc2ccc(C(=O)N[C@@H]3CN4CCC3CC4)n2Cc2ccccc21` [Example 297, N-[(3S)-1-Azabicyclo[2.2.2]oct-3-yl]-10-[(6-chloro-3-methoxy-2′-methyl-[1,1′-biphenyl]-4-yl)carbonyl]-10,11-dihydro-5H-pyrrolo[2,1-c][1,4]benzodiazepine-3-carboxamide], the inhibition at 0.1 µM in series [1] was -2%.
